ChEMBL document CHEMBL1201862, “PubChem BioAssay data set” (2004)
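Compound exposure: 48 hours, 5 concentrations, 96-well plates. GI50 is the concentration that inhibits growth by half.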 Active and inactive are the calls of the source. Rule as the data show it: active = GI50 up to about 1.1 µM and inactive = higher.

Tests used:
Assay in all cases: growth of human tumour cells (NCI), 48 h
[1] = test system: DLD-1
[2] = test system: DMS-114
[3] = test system: DMS-273
[4] = test system: HOP-18
[5] = test system: LXFL 529
[6] = test system: RXF 631
[7] = test system: SNB-78
[8] = test system: XF498
[9] = test system: BT-549

Measured: GI50

[O-][S+]1c2ccccc2N=C(c2cccc3ccccc23)CC1c1cccc2ccccc12 (configuration not stated)
inactive: [1] 18.4 µM | [2] 16.5 µM | [3] 29.6 µM | [4] 12.2 µM | [5] 17.5 µM | [6] 36.4 µM | [7] 39 µM | [8] 20.6 µM

C/C=C/C=C/[C@H]1Cc2cc(O)cc(O)c2O1
inactive: [1] 82 µM | [2] 22.6 µM | [3] 28.9 µM | [4] > 100 µM | [5] 27.4 µM | [6] 62.4 µM | [7] > 100 µM | [8] 46.5 µM

O=C1[C@H]2ON(c3ccccc3)C(c3ccc(Cl)cc3)[C@H]2C(=O)N1c1ccc(Cc2ccc(N3C(=O)[C@@H]4ON(c5ccccc5)C(c5ccc(Cl)cc5)[C@@H]4C3=O)cc2)cc1 (some centres not stated)
inactive: [1] > 100 µM | [2] > 100 µM | [3] > 100 µM | [4] > 100 µM | [5] 94.8 µM | [6] > 100 µM | [7] > 100 µM

O=C1C=CC2(C=C1)C[C@H](NC(=O)OCc1ccccc1)C(=O)O2
inactive: [9] 18 µM | [1] 5.53 µM | [2] 20.3 µM | [3] 18.3 µM | [4] 16.7 µM | [5] 12.1 µM | [6] 19.6 µM | [7] 24.5 µM | [8] 17.8 µM

O=C(O)c1ccccc1[Se][Se]c1ccccc1C(=O)O
inactive: [1] > 100 µM | [2] 32.3 µM | [3] 66.1 µM | [4] 23.2 µM | [6] 28.4 µM | [8] 70 µM

O=C1N=C(Nc2ccccc2Cl)SC1C(=O)Nc1ccc([N+](=O)[O-])cc1[N+](=O)[O-] (configuration not stated)
inactive: [1] > 100 µM | [2] 75.3 µM | [3] > 100 µM | [4] 22 µM | [5] > 100 µM | [6] > 100 µM | [7] > 100 µM | [8] > 100 µM

O=c1[nH]c(=O)n(C2CC(O)C(CO)O2)cc1C#Cc1cc(F)cc(F)c1 (configuration not stated)
inactive: [1] > 100 µM | [2] > 100 µM | [3] > 100 µM | [4] 24.7 µM | [5] > 100 µM | [6] > 100 µM | [7] > 100 µM | [8] > 100 µM

Cn1c2cc(O)cc(O)c2c(=O)c2c([N+](=O)[O-])cccc21
inactive: [1] > 100 µM | [2] > 100 µM | [3] > 100 µM | [4] > 100 µM | [5] > 100 µM | [6] > 100 µM | [7] > 100 µM

COc1ccc2[nH]c3c(c2c1)[C@H](C)C[C@@H]1C(=O)N(c2ccccc2)C(=O)[C@H]31
inactive: [1] 43.3 µM | [2] 33.8 µM | [3] 37.8 µM | [4] 20.9 µM | [5] 29.6 µM | [6] 20.5 µM | [8] 24.5 µM

[O-][S+]1Cc2ccccc2CS1 (configuration not stated)
inactive: [1] 16.7 µM | [3] 14.2 µM | [4] 33 µM | [5] 15.1 µM | [6] 48.9 µM | [7] 14.7 µM | [8] 17.9 µM

CC(C)CS(=O)(=O)/C(=C(\c1ccc(Br)cc1)S(=O)(=O)CC(C)C)c1ccc(Br)cc1
inactive: [1] > 100 µM | [3] > 100 µM | [4] > 100 µM | [5] > 100 µM | [6] > 100 µM | [7] 97.7 µM | [8] > 100 µM
